According to paper PMC9820828, “Anti-Melanogenesis Effects of a Cyclic Peptide Derived from Flaxseed via Inhibition of CREB Pathway” (International Journal of Molecular Sciences, 2022):

Key:
Type in all cases: cell-based, mouse
[1] = system: B16F10 melanoma cells; experiment: Cell viability (MTT assay); conditions: for cell viability (MTT): B16F10 melanoma cells; for toxicity (MTT): at the concentration contained in LOMIX and at all concentrations (0–50 μM)
Procedure: Mouse-derived B16F10 melanoma cells were incubated in the DMEM medium supplemented with 10% (v/v) FBS and 1% streptomycin–penicillin solution at 37 °C and 5% CO2. Sub-culture was conducted by detaching the cells with trypsin-EDTA after reaching 90% confluence.
The effects of LOMIX and each LO compound on cell survival were determined using the MTT assay. B16F10 melanoma cells (100 μL of 1.5 × 10^5 cells/mL) were seeded in a 96-well plate with 100 μL of the testing sample [LOMIX (0–200 μg/mL) or LO (0–50 μM)]. After 2 days, MTT solution (10 μL) was added to each well, and cells were incubated for an additional 3 h in the dark. The reaction was stopped by adding 100 μL of 10% SDS complemented with 0.01 M HCl. Moreover, 5000 cells/well of B16F10 melanoma cells were incubated in 96-well plates to check the cytotoxicity of LOMIX in the presence of α-MSH. The 10 μL of MTT solution was added to the cells incubated with the LOMIX (50 and 100 μg/mL) and α-MSH (100 nM) for 0, 24, and 48 h. Subsequently, the stopping solution (100 μL) (10% SDS solution with 0.01 M HCl) was added after 3 h incubation. The absorbance was measured at 570 nm using Synergy™ HTX (Biotek Instruments Inc., Winooski, VT, USA).

[2] = system: B16F10 melanoma cells; experiment: Extracellular melanin secretion in α-MSH-stimulated cells; conditions: 48 h; for melanin (pigment) secretion: 12.5, 25 and 50 μM; for secretion of melanin: 6.25, 12.5 and 25 μM, dose-dependent
Procedure: (§1) B16F10 melanoma cells (1.5 × 10^5 cells/mL) were seeded in a 6-well plate and cultured overnight. Then, the culture media were replaced with phenol red-free media containing DMSO (vehicle) or α-MSH (melanogenesis inducer) for the identification of the color change caused by melanogenesis. The cells were treated with different concentrations of LOMIX (25, 50, and 100 μg/mL) or LO A, B (6.25, 12.5, and 25 μM), D, E, and F and G (12.5, 25, and 50 μM). Arbutin at 1 mM was used as a positive control. After 48 h of the incubation, the culture medium’s optical density was detected at 475 nm to measure the amount of extracellular melanin secretion. Meanwhile, the remaining cells were harvested with 1 mL cold PBS and lysed with a lysis buffer (50 mM Tris-HCl pH 7.5, 120 mM NaCl, 20 mM β-glycerophosphate pH 7.5, and 2% NP-40). After centrifuging at 12,000× g for 5 min., the cell pellets were dissolved in 10% DMSO in 1 M NaOH and incubated at 60 °C. The melanin contents were measured at 405 nm using a Synergy™ HTX microplate reader. All photos of melanin-secreted medium and intracellular melanin contents were collected.

[3] = system: Tyrosinase; experiment: Real-time PCR, Tyrosinase mRNA; conditions: 0–25 μM, co-treatment with 100 nM α-MSH, 24 h, B16F10 cells
Procedure: (§2) B16F10 cells (3 × 10^5 cells/mL) stimulated by 100 nM α-MSH were treated with LOMIX (0–100 μg/mL), LO A or B (0–25 μM), or arbutin 1 mM for 24 h. The cells were lysed with 300 μL of TRI Reagent® to extract total RNA. Then, 1 μg of total RNA with Reverse Transcriptase M-MuLV (Thermo Fisher Scientific, Waltham, MA, USA) was utilized to synthesize cDNA according to the manufacturer’s instructions. Real-time PCR was conducted, as previously described.

[4] = system: CREB; experiment: Immunoblotting, phosphorylated CREB; conditions: 0–25 μM, 100 nM α-MSH, 24 h, B16F10 cell lysates, Western blotting
Procedure: (§3) To induce melanogenesis, 3 × 10^5 B16F10 melanoma cells per mL were treated with 100 nM of α-MSH. Subsequently, 1 mM of arbutin or LO A or B (0–25 μM) was administered to the culture media for 24 h. The cells were then harvested with 1 mL of cold PBS and lysed with lysis buffer containing protease inhibitors (20 mM Tris-HCl pH 7.5, 2 mM EDTA, 20 mM NaF, 150 mM NaCl, 50 mM β-glycerol phosphate, and 2% NP-40 containing 2 μg/mL of leupeptin, pepstatin, and aprotinin). The whole cell lysates were centrifuged at 12,000× g for 5 min to purify the intracellular protein. SDS-polyacrylamide gel electrophoresis (Bio-Rad, Hercules, CA, USA) was conducted to separate the equivalent protein contents according to size. The separated proteins were transferred to polyvinylidene fluoride membranes and blocked with 3% (w/v) bovine serum albumin (BSA) solution for at least 30 min at ambient temperature. They then were incubated overnight with primary antibodies (1:2500 dilution) at 4 °C. After three 10-min washes with 0.1% (w/v) Tween-20, the membranes were probed with HRP-conjugated secondary antibodies (1:2500 dilution). The signals of each protein sample were detected with enhanced chemiluminescence reagents.

[5] = system: TYRP-1; experiment: Real-time PCR, TYRP-1 mRNA; conditions: 0–25 μM, co-treatment with 100 nM α-MSH, 24 h, B16F10 cells
Procedure: as §2

[6] = system: TYRP-2; experiment: Real-time PCR, TYRP-2 mRNA; conditions: 0–25 μM, co-treatment with 100 nM α-MSH, 24 h, B16F10 cells
Procedure: as §2

[7] = system: PKA; experiment: Immunoblotting, phosphorylated PKA; conditions: 0–25 μM, 100 nM α-MSH, 24 h, B16F10 cell lysates, Western blotting
Procedure: as §3

[8] = system: B16F10 melanoma cells; experiment: Intracellular melanin content in α-MSH-stimulated cells; conditions: for melanin synthesis (melanin contents): 6.25, 12.5 and 25 μM, α-MSH, 48 h, B16F10 cells; for suppression of the synthesis of melanin: 12.5 and 25 μM, B16F10 cell lines
Procedure: as §1

[9] = system: MITF; experiment: Real-time PCR, MITF mRNA; conditions: 0–25 μM, co-treatment with 100 nM α-MSH, 24 h, B16F10 cells
Procedure: as §2

[10] = system: MITF; experiment: Immunoblotting, MITF protein; conditions: 0–25 μM, 100 nM α-MSH, 24 h, B16F10 cell lysates, Western blotting
Procedure: as §3

Substance | cell viability (MTT) ([1]; 50 μM, 48 h) | toxicity (MTT) ([1]; B16F10 cells, 48 h) | melanin (pigment) secretion [2] | expression of tyrosinase at mRNA level [3] | phosphorylation of CREB [4] | expression of TYRP1 at mRNA level [5] | expression of TYRP-2 at mRNA level [6] | phosphorylation of PKA [7] | secretion of melanin [2] | melanin synthesis (melanin contents) [8] | suppression of the synthesis of melanin [8] | expression of MITF at mRNA level [9] | protein level of MITF [10] | cell viability (MTT) ([1]; 25 μM, 48 h) | cell survival (MTT) ([1]; 50 μM, B16F10 cells, 48 h) | toxicity ([1]; 12.5 and 25 μM, B16F10 cell lines)
[1–8-NαC],[1-(Rs,Ss)-MetO]-linusorb A2 [LO3] | not altered | did not show toxicity | decreased |  |  |  |  |  |  |  |  |  |  |  |  | 
[1–8-NαC],[1-(Rs,Ss)-MetO]-linusorb B1 [LO4] | not altered | did not show toxicity | decreased |  |  |  |  |  |  |  |  |  |  |  |  | 
[1–9-NαC]-linusorb B2 [LO2] |  |  |  | downregulated | blocked | downregulated | suppressed | not PKA | dramatically downregulated | decreased | up to 90% | downregulated | decreased levels |  |  | 
[1–9-NαC]-linusorb B3 [LO1] |  |  |  | effectively inhibited | suppressed | effectively inhibited | suppressed | suppressed | dramatically downregulated | decreased | up to 90% | effectively inhibited | significantly decreased | not altered | declined | without toxicity
